Data taken from patent US20240002351A1, “QUINAZOLIN-4-ONE AND THIENO[2,3-D]PYRIMIDIN-4-ONE INHIBITORS OF ERBB4 (HER4) FOR USE IN THE TREATMENT OF CANCER” (UNIVERSITEIT ANTWERPEN, priority 2021, published 2024).

Assays:
ERBB4 [1] = target: T1, ERBB4 (Homo sapiens, UniProt Q15303); assay: PathHunter ERBB4/ERBB4 dimerization assay, dose-response curves; type: cell-based; conditions: U2OS ERBB4/ERBB4 dimerization cell line, 6 hours, compound alone; for Emax: NRG-1 = 100
T1 construct: host or cells: U2OS
Description: (§1) Following 1-12 passages, U2OS ERBB4/ERBB4 dimerization cell line (Eurofins, 93-0961C3) were seeded at 10,000 cells/well in 100 μL cell plating reagent (Eurofins, 93-0563R0A) in white walled 96-well plates (PerkinElmer, 6005680) and incubated for 24h at 37° C. in humidified atmosphere of 5% CO2 in air. Cells were treated with 10 μL of compound (prepared at 11×, Enamine), 10 μM Heregulin-β1 (NRG-1) (DiscoverX, 92-1031 or Peprotech, 100-03) or PBS. […] Cells were subsequently incubated for 6 hours at 37° C., 5% CO2. Then 110 μL PathHunter Flash Detection Reagents (93-0247) were added to each well and cells were incubated at room temperature for 1 hour (covered from light). Afterwards luminescence signal was measured using the Luminoskan Ascent (Thermofisher). Dose response curves of the compounds were performed in 2-fold (0,0625 μM-32 μM).
From these curves, the EC50 and the Emax of the compounds was calculated.

ERBB4 [2] = target: T1, ERBB4; assay: PathHunter ERBB4/ERBB4 dimerization assay, compounds on top of 0.1 μM NRG-1 (identification of modulators); type: cell-based; conditions: for EC50: on top of 0.1 μM NRG1; for Emax: on top of 0.1 μM NRG1, relative to NRG1 (set as 100%); for behaviour from the shape of the dose-response curves: on top of 0.1 μM neuregulin-1 (FIG. 1)
Description: as §1
Cells were treated with compound (prepared at 22×, 10 min pre-incubation) together with NRG-1 (0.1 μM final concentration, Peprotech, 100-03), or NRG-1 (0.1 μM final concentration) or PBS.
The EC50 and the Emax of the compounds on top of 0.1 μM NRG1 is depicted in Table 3 relative to NRG1 (set as 100%).

[3] = Solubility in PBS (absorbance); type: physicochemical; conditions: aqueous buffer, kinetic from dmso stock, 37° C., 2 hours (FIG. 10), read-out: solubility: concentration at which easily soluble
Description: A dilution series (0.16, 0.31, 0.62, 1.25, 2.5 and 5 mM) was made starting with a compound stock solution of 10 mM in DMSO. Aliquot of 4 μL was taken out of every dilution and added to 196 μL PBS in a 96-well plate. The plate was shaken for 10 seconds, incubated at 37° C. for 2 hours and thereafter absorbance was measured. Samples were analyzed in duplicate.

Chemical stability = type: physicochemical; conditions: 37° C. and pH 7.4 for 24 hours (FIG. 11)
Description: A 10 μL aliquot of compound solution (10 mM in DMSO) was added to 990 μL DMSO (100 μM) and further diluted with […] to a stock solution of 500 nM. The mixture was incubated at 37° C. Aliquots of 100 μL were taken at various time points (0, 0.5, 1, 2, 3, 6 and 24 hrs) and analyzed with LC-MS/MS (Waters Acquity H-class UPLC system with ion trap mass spectrometer, Bruker Daltonics Esquire 3000 plus, and Agilent 1100 Series LC system). Samples were analyzed in triplicate and plotted against a standard curve; compound at 31-500 nM in buffer solution of pH 7.4 (10 mM Potassium Phosphate, BD Gentest).

[4] = Plasma stability, human plasma; type: in vitro ADME; conditions: 50 μM, 37° C., over 6 hours (FIG. 12)
Description: (§2) A 5 μL aliquot of compound solution (10 mM in DMSO) was added to 995 μL of Non Swiss Albino Mouse Plasma (DivBioScience, Breda, Netherlands) or Pooled Normal Human plasma in sodium citrate to obtain a final concentration of 50 μM compound in plasma. The mixture was gently shaken for 6 hours at 37° C. Aliquots of 100 μL were taken at various time points (0, 0.5, 1, 2 and 6 hrs.) and diluted with 400 μL of cold acetonitrile (Sigma-Aldrich, stored at 4° C.). The suspension was centrifuged at 14000 rpm for 5 min. Thereafter, 50 μL of the supernatant was diluted with 950 μL of acetonitrile and analyzed with LC-MS/MS (Waters Acquity H-class UPLC system with ion trap mass spectrometer, Bruker Daltonics Esquire 3000 plus, and Agilent 1100 Series LC system). Samples were analyzed in triplicate and plotted against a standard curve (compound at 3.12-100 μM in plasma and diluted in acetonitrile as described above).

[5] = Plasma stability, mouse plasma; type: in vitro ADME; conditions: 50 μM, 37° C., over 6 hours (FIG. 12)
Description: as §2

[6] = Metabolic stability, human liver microsomes; type: in vitro ADME
Description: (§3) A mixture of 713 μL milliQ water (Millipore, MA, USA), 200 μL 0.5 M phosphate buffer (pH 7.4, BD Diagnostic Systems, MD, USA), 50 μL NADPH regenerating system solution A (BD Biosciences, CA, USA), 10 μL NADPH regenerating system solution B (BD Biosciences, CA, USA) and 2 μL compound (5 mM in DMSO) was prepared and heated for 5 min at 37° C. Twenty-five μL of liver microsomes (0.5 mg protein/mL, Corning B.V. Life Sciences, Amsterdam, Netherlands) was added to the mixture and 20 μL samples were withdrawn at 0, 0.25, 0.5 and 1, 2, 4, 6 and 24 hours. Eighty μL (4×20 μL) of cold acetonitrile (Sigma-Aldrich, MO, USA) was added to the samples on ice for 10 min. Afterwards, the mixtures were centrifuged at 13,000 rpm for 5 min at 4° C. Seventy-five μL of an acetonitrile/water (10/90) mixture was added to 25 μL supernatant and the obtained samples were analyzed by LC-MS/MS (Waters Acquity H-class UPLC system with ion trap mass spectrometer, Bruker Daltonics Esquire 3000 plus, and Agilent 1100 Series LC system) in triplicate.

[7] = Metabolic stability, mouse liver microsomes; type: in vitro ADME
Description: as §3

EFO-21 cells = assay: AK (adenylate kinase) toxicity assay; type: cell-based; conditions: 32 μM, 24 hours, EFO-21 cells (FIG. 3)
Description: EFO-21 cells were seeded at 10,000 cells/well in 100 μL cell medium in white walled 96-well plates (PerkinElmer, 6005680) and incubated overnight at 37° C. in humidified atmosphere of 5% CO2 in air. Next, cells were put on serum starved (SS) medium (0,1% FBS) overnight. Overnight cell cultures were then stimulated with PBS, compound (32 μM, Enamine) and/or NRG-1 (0.1 μM, Peprotech, 100-03) for 24 hours at 37° C. in humidified atmosphere of 5% CO2 in air. […] Next, 100 μL Toxilight AK detection reagent was added to each well and incubated at room temperature for 5 minutes. Luminescence was measured using the Luminoskan Ascent (Thermofisher).

[8] = test system: Human atrial cardiac fibroblasts (HCF); assay: In vitro fibrosis assay, TGFβ-stimulated HCF (qRT-PCR); type: cell-based; conditions: TGFβ 10 ng/mL, 24 hours (FIG. 9)
Description: Human dermal fibroblasts (HDF, Cell applications, 106-05A) were cultured in Dulbecco's modified Eagle's medium (DMEM, ThermoFisher Scientific, 11995065) supplemented with 10% (v/v) heat-inactivated fetal bovine serum (FBS, ThermoFisher Scientific, 10082147), 1% penicillin/streptomycin and 1 mL polymyxin B and were maintained at 37° C. in humidified atmosphere of 5% CO2 in air. Human atrial cardiac fibroblasts (HCF, Innoprot, P10454) were cultured in fibroblast medium (Innoprot, P60108) supplemented with fetal bovine serum, fibroblast growth supplement and penicillin/streptomycin and were maintained at 37° C. in humidified atmosphere of 5% CO2 in air.
Following 1-9 passages, HDF and HCF were seeded at 0.3×10^6 cells/well in 1 mL cell medium in 12-well plates and incubated overnight at 37° C. in humidified atmosphere of 5% CO2 in air. Next, cells were put on serum starved medium (0.1% FBS) for 8 hours and then stimulated for 24 hours with either PBS, active compound (4-32 μM) or non-active compound (NA1, NA2; 4-32 μM) on top of TGFβ (10 ng/mL, Peprotech, 100-21). […] Next, cells were lysed using 100 μL lysis buffer RA1 (of RNA isolation kit below) supplemented with β-mercapto-ethanol (100:1), scraped with a cell scraper and transferred to centrifuge tubes to be stored at −20° C. for a maximum of 2 weeks before RNA isolation.
RNA was extracted using Nucleospin RNA XS (Machery Nagel) according to the manufacturer's instructions. For cDNA synthesis, total RNA was added to a solution containing buffer with random hexamers and reverse transcriptase enzyme. The PCR was performed using the following parameters: 10 minutes at 25° C., 30 minutes at 48° C., 5 minutes at 95° C. RT-qPCR on the cDNA samples was performed using Taqman Universal PCR Master Mix (Applied Biosystems) and Taqman primers according to the manufacturer's instructions. […] Expression levels were calculated using the comparative cycle method and expressed as fold change to appropriate (background) control. […]

T1 sequence (Q15303 26-1308): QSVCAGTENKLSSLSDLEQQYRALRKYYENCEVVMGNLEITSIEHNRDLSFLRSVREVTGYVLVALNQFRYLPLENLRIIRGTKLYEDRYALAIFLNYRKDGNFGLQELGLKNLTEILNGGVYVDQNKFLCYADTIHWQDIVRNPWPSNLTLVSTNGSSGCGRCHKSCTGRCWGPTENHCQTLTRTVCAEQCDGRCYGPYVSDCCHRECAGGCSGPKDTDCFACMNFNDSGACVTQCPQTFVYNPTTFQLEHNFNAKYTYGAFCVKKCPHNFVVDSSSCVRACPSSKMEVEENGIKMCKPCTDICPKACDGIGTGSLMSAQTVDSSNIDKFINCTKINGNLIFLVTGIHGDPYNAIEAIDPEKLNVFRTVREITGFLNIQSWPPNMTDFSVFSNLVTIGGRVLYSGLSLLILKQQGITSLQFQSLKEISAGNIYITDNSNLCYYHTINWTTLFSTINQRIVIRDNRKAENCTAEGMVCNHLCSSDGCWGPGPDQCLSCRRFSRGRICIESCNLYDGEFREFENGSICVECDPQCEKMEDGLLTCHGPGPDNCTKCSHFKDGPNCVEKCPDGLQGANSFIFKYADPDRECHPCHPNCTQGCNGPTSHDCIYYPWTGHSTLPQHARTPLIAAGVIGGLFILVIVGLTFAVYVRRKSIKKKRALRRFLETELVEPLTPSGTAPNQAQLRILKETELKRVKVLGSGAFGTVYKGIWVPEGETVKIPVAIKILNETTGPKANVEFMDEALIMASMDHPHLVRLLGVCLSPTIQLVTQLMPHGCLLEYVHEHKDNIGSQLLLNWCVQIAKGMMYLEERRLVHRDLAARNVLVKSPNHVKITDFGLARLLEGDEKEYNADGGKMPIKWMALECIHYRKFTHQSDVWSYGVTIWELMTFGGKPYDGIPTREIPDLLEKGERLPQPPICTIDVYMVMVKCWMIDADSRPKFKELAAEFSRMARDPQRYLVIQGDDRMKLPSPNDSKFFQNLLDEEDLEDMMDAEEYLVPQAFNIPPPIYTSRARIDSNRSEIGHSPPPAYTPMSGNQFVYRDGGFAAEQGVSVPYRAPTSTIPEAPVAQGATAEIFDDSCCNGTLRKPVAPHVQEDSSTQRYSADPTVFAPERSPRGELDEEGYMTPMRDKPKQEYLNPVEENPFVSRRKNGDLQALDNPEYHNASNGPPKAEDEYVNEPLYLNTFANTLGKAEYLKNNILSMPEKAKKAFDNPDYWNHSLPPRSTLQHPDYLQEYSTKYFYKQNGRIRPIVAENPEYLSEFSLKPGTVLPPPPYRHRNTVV

| SMILES | EC50 (ERBB4 [1]) [µM] | Emax (ERBB4 [1]) [%] | EC50 (ERBB4 [2]) [µM] | Emax (ERBB4 [2]) [%] | behaviour from the shape of the dose-response curves (ERBB4 [2]) | solubility at 2 h [3] [µM] | chemical stability (Chemical stability) | plasma stability, human plasma [4] | plasma stability, mouse plasma [5] | t1/2 human ([6]; human liver microsomes) [min] | half-life at 10 µM ([6]; human, liver microsomes, pH 7.4, human liver microsomes, read-out: t1/2 human) [min] | t1/2 mouse ([7]; mouse liver microsomes) [min] | half-life at 10 µM ([7]; mouse, liver microsomes, pH 7.4, mouse liver microsomes, read-out: t1/2 mouse) [min] | toxicity (AK release) (EFO-21 cells) | col1a1 levels in comparison with TGFβ control [8] |
| --- | --- | --- | --- | --- | --- | --- | --- | --- | --- | --- | --- | --- | --- | --- | --- |
| CC(=O)c1ccc(NC(=O)C(C)Sc2nc3ccccc3c(=O)n2C2CCCC2)cc1 (stereo not drawn) [Compound 2] | 10.9 | 9.48 ± 2.13 | – | 126 ± 36 | weak or silent allosteric modulators | – | – | – | – | – | – | – | – | – | – |
| O=C1NCCCCC1Sc1nc2sc3c(c2c(=O)n1C1CCCC1)CCCC3 (stereo not drawn) [Compound 5] | 6.11 | 17.7 ± 3.45 | ~3.36 | 63 ± 14 | partial agonists or allosteric agonists functioning as partial agonists | – | – | – | – | – | – | – | – | limited toxicity | – |
| CC(Sc1nc2ccccc2c(=O)n1C1CCCC1)C(=O)N(C)c1ccccc1 (stereo not drawn) [Compound 3] | 15.8 | 14.3 ± 2.63 | – | 36 ± 13 | partial agonists or allosteric agonists functioning as partial agonists | – | – | – | – | – | – | – | – | limited toxicity | significantly decrease col1a1 levels |

Now from value to molecule, other results behind:

| EC50 (ERBB4 [1]) [µM] | Emax (ERBB4 [1]) [%] | EC50 (ERBB4 [2]) [µM] | Emax (ERBB4 [2]) [%] | behaviour from the shape of the dose-response curves (ERBB4 [2]) | solubility at 2 h [3] [µM] | chemical stability (Chemical stability) | plasma stability, human plasma [4] | plasma stability, mouse plasma [5] | t1/2 human ([6]; human liver microsomes) [min] | half-life at 10 µM ([6]; human, liver microsomes, pH 7.4, human liver microsomes, read-out: t1/2 human) [min] | t1/2 mouse ([7]; mouse liver microsomes) [min] | half-life at 10 µM ([7]; mouse, liver microsomes, pH 7.4, mouse liver microsomes, read-out: t1/2 mouse) [min] | SMILES | toxicity (AK release) (EFO-21 cells) | col1a1 levels in comparison with TGFβ control [8] |
| --- | --- | --- | --- | --- | --- | --- | --- | --- | --- | --- | --- | --- | --- | --- | --- |
| 20.4 | 18.4 ± 3.47 | – | 174 ± 38 | ago-allosteric modulators | – | – | – | – | – | – | – | – | Cc1sc2cc(SCC(=O)NC(C)(C#N)C(C)C)n(C3CCCC3)c(=O)c2c1C (stereo not drawn) [Compound 8] | – | – |
| 7.54 | 16.9 ± 3.69 | ~21.5 | 192 ± 34 | ago-allosteric modulators | < 25 | chemically stable | stable | stable | 18 | 17 to 18 | 12 | 8 to 12 | CC(C)n1c(SC(C(=O)NC2CC2)c2ccccc2)nc2sc3c(c2c1=O)CCC3 (stereo not drawn) [Compound 4] | – | – |
